“Also recorded” adds a separate entry of the source.
Tests used:
[1] = system: blood-stage Trypanosoma brucei; experiment: CellTiter-Glo luminescent assay; type: cell-based
Protocol: The parasites were synchronized using sequential sorbitol lysis treatment, with experiments carried out at least one intra-erythrocytic cycle later. T. brucei single marker (SM) cells were maintained at log phase growth (<1.5×10^6 cells/mL) in HMI-19 media supplemented with 10% FBS (Gibco) and 2.5 μg/mL G418 (Life Technologies) at 37° C. and 5% CO2.
(§1) Compounds were tested against the blood-stage Trypanosoma brucei (48 hr endpoint) and intra-erythrocytic asexual stages Plasmodium falciparum (3D7) using CellTiter-Glo® luminescent and Malaria SYBR green I fluorescence (MSF) assays, respectively. Similar methodology will be used for future experiments.
(§2) MMV676477 was tested against several other parasites: the axenic amastigotes of Leishmania donovani and Leishmania tarentolae, blood-stage Plasmodium falciparum, and Trypanosoma brucei. The compound's activity was measured using alamarBlue®, Malaria SYBR green I fluorescence (MSF) and CellTiter-Glo® luminescent assays. […] In addition, MMV676477 has also been recently reported as having potent activity against Neospora caninum, Cryptosporidium parvum, Toxoplasma gondii, and Entamoeba histolytica.

[2] = Cytotoxicity, alamarBlue; type: cell-based; details: mouse, RAW 264.7 macrophage cells, read-out: CC50^72 h cytotoxicity (macrophage / mammalian cells)
Protocol: (§3) Leishmania amazonensis axenic amastigotes (100 μL, 2×10^6 cells/mL) were added to 96-multiwell plates containing 100 μL of amastigote culture medium with an appropriate compound dilution series. 0.1% DMSO (no drug) served as a positive control (100%), and 5 μM amphotericin B served as a negative growth control (0%). Only internal wells were used to minimize edge effects from evaporation. Axenic amastigotes were incubated at 32° C. with a compound/drug for 72 h prior to measurement. Similarly, the cytotoxicity of each compound was determined against RAW 264.7 cells and HepG2 cell lines, following 72 h incubation at 37° C. (promastigotes at 26° C.).
10% alamarBlue® (Thermo Fisher Scientific) was used to measure the growth of both parasite and mammalian cells. Conversion from a blue oxidized state to a pink reduced state was assessed visually at 6 hr. The fluorescence signal was measured with a BioTek Synergy H1 plate reader (530 nm excitation, 570 nm emission). For bioluminescence assays using L. amazonensisluc, relative luminescence units (RLU) were measured using Britelite Plus (PerkinElmer, USA). Luminescence produced by this luciferase reaction is proportional to the amount of luciferase-expressing, viable L. amazonensisluc. Following five-minute incubation at room temperature, the luminescence was measured with a BioTek Synergy H1 plate reader. […]

[3] = system: cellular tubulin of L. amazonensis; experiment: Polymerized vs. unpolymerized tubulin in parasites (differential centrifugation, western blot); type: cell-based, Leishmania amazonensis; details: 24 h at EC50^72 h, densitometry
Source text: One reason why MMV676477 might affect parasite cell division is that, like paclitaxel, it might affect microtubule polymerization, either directly or indirectly. The degree to which MMV676477 affected microtubules polymerization in cells was examined. […] Centrifugation of these extracts allowed separation of insoluble polymeric (pellet) and soluble dimeric (supernatant) tubulin. […] The intensity of α-tubulin staining was examined by normalizing it to the intensity of a membrane protein (gp46 for promastigotes in FIG. 4D; p8 for amastigotes in FIG. 4E).

[4] = biological target: T1, purified porcine tubulin (Sus scrofa, UniProt P02550+P02554); experiment: Fluorescent microtubule assembly assay; type: biochemical; details: mammalian tubulin, fluorescence micrographs
T1 construct: purchased Cytoskeleton, Inc. T240
Protocol: (§4) To determine the selectivity of MMV676477, purified porcine tubulin was exposed to a serial dilution of the drug (0 to 25 μM) and absorbance was measured at 340 nm over time. […] To ensure that the absorbance seen at 340 nm reflected microtubule formation and not precipitation, a fluorescent microtubule assembly assay was employed.

[5] = biological target: T1, purified porcine tubulin; experiment: Tubulin polymerization turbidity assay, mammalian tubulin; type: biochemical
Protocol: Tubulin polymerization assays were performed in 96-well half-area microplates (Costar) in a final volume of 100 μL. Briefly, Leishmanial or porcine tubulin (>99% pure, Cat. #T240, Cytoskeleton, Inc.) in 50 μL volume was pre-treated with drugs on ice for 5 minutes before adding 50 μL ice cold buffer, to provide a final concentration of 3 mg/ml tubulin in 80 mM PIPES pH 6.9, 2 mM MgCl2, 0.5 mM EGTA, 1 mM GTP, and 1% DMSO unless specified otherwise. The absorbance at 340 nm was recorded in a Synergy H1 microplate reader (BioTek) for up to 45 min at 37° C. (porcine tubulin) or 30° C. (L. tarentolae tubulin).
as §4

[6] = system: blood-stage P. falciparum (3D7 strain); experiment: Malaria SYBR green I fluorescence (MSF) assay; type: cell-based, Plasmodium falciparum
Protocol: (§5) For other parasites, L. donovani, strain MHOM/SD/62/1S-C12D, was grown as previously described. Plasmodium falciparum parasites of the 3D7 strain were cultured in RPMI 1640 medium supplemented with 37.5 mM HEPES, 10 mM D-glucose, 2 mM L-glutamine, 100 μM hypoxanthine, 25 μg/mL gentamicin, 4% (v/v) human serum and 0.25% (v/v) Albumax II, at a 2% haematocrit in an atmosphere of 1% 02, 3% CO2 and 96% N2. Staging and parasitemia of the in vitro culture were assessed by light microscopy of Giemsa-stained thin blood smears.
as §1, §2

[7] = system: L. donovani axenic amastigotes; experiment: alamarBlue assay, L. donovani axenic amastigotes; type: cell-based, Leishmania donovani
Protocol: as §5
as §3, with “Axenic amastigotes were incubated at 32° C. with a compound/drug for 72 h prior to measurement.” left out, “(promastigotes at 26° C.).” left out
MMV676477 was tested against several other parasites: the axenic amastigotes of Leishmania donovani and Leishmania tarentolae, blood-stage Plasmodium falciparum, and Trypanosoma brucei. The compound's activity was measured using alamarBlue®, Malaria SYBR green I fluorescence (MSF) and CellTiter-Glo® luminescent assays. […]

[8] = biological target: purified L. tarentolae tubulin (Leishmania tarentolae, UniProt A0A640KCM0+A0A640KQN0); experiment: Chemical cross-linking competition with SW223022 probe; type: binding; details: 100-fold excess of competitor

CCc1c(C)nc(-n2nc(C)cc2NC(=O)c2ccccc2SC)[nH]c1=O [MMV676477, N-(1-(5-Ethyl-4-methyl-6-oxo-1,6-dihydropyrimidin-2-yl)-3-methyl-1H-pyrazol-5-yl)-2-(methylthio)benzamide]
activity against Trypanosoma brucei (in words) [1]: nanomolar-range cytocidal potency; also recorded: broad activity; also recorded: nanomolar concentrations
CC50 at 72 h [2]: 2.2 µM
proportion of cellular polymeric tubulin [3]: significantly increased the proportion of cellular polymeric tubulin
microtubules formed vs control [4]: many more microtubules were formed
EC50 ([5]; 3 mg/ml tubulin, 1% DMSO, A340): 11 µM
tubulin polymerization activity with detergent ([5]; 0.01% Triton-X treatment): not affected
Maximum absorbance (A340, 10% DMSO) ([5]; mammalian tubulin): 0.4
activity against Plasmodium falciparum (in words) [6]: nanomolar-range cytocidal potency; also recorded: broad activity; also recorded: nanomolar concentrations
activity against L. donovani axenic amastigotes (in words) [7]: broad activity
competition with SW223022 probe (fluorescent tubulin band) [8]: almost completely absent
